According to the supplement of paper PMC6045584:
± gives the standard deviation of the averaged measurements.

What was measured:
[1] = compound: COc1ccc(-c2cc3c(C)nc(N)nc3n([C@H]3CC[C@H](OCCO)CC3)c2=O)cn1; assay: surviving fraction relative to DMSO-only wells; higher = less growth inhibition; details: exposure time: 5 days
Outline: (§1)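 In 384-well plates, 250–500 log-phase tumour cells per well were given 24 hours before five days of continuous exposure to inhibitors at 0.5, 1, 5, 10, 50, 100, 500 and 1000 nM. Surviving fraction is luminescence from CellTiter-Glo, normalised to the median of wells containing DMSO alone. Reading took place after 10 minutes at room temperature.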

LENVATINIB = compound: COc1cc2nccc(Oc3ccc(NC(=O)NC4CC4)c(Cl)c3)c2cc1C(N)=O [LENVATINIB]; assay: as above; details: exposure time: 5 days
Outline: as §1

Test System | surviving fraction ([1]; 0.5 nM) | surviving fraction ([1]; 1 nM) | surviving fraction ([1]; 5 nM) | surviving fraction ([1]; 10 nM) | surviving fraction ([1]; 50 nM) | surviving fraction ([1]; 100 nM) | surviving fraction ([1]; 500 nM) | surviving fraction ([1]; 1000 nM) | surviving fraction (LENVATINIB; 0.5 nM) | surviving fraction (LENVATINIB; 1 nM) | surviving fraction (LENVATINIB; 5 nM) | surviving fraction (LENVATINIB; 10 nM) | surviving fraction (LENVATINIB; 50 nM) | surviving fraction (LENVATINIB; 100 nM) | surviving fraction (LENVATINIB; 500 nM) | surviving fraction (LENVATINIB; 1000 nM)
SG31 HEADNECK | 0.99 ± 0.13 | 0.942 ± 0.1 | 0.933 ± 0.08 | 0.766 ± 0.057 | 0.637 ± 0.036 | 0.463 ± 0.054 | 0.25 ± 0.014 | 0.162 ± 0.023 | 1.04 ± 0.17 | 1.17 ± 0.15 | 0.975 ± 0.3 | 0.977 ± 0.066 | 0.985 ± 0.12 | 0.967 ± 0.059 | 1.24 ± 0.09 | 1.12 ± 0.2
NCIH441 LUNG | 1.03 ± 0.068 | 1.03 ± 0.071 | 1.06 ± 0.064 | 0.966 ± 0.058 | 0.886 ± 0.048 | 0.789 ± 0.028 | 0.425 ± 0.021 | 0.412 ± 0.015 | 1.02 ± 0.12 | 1.11 ± 0.1 | 1.07 ± 0.11 | 1 ± 0.019 | 0.994 ± 0.083 | 1.09 ± 0.041 | 1.09 ± 0.075 | 1.01 ± 0.04
HOS BONE | 0.992 ± 0.0078 | 0.983 ± 0.019 | 0.986 ± 0.012 | 0.906 ± 0.014 | 0.781 ± 0.021 | 0.618 ± 0.016 | 0.231 ± 0.012 | 0.178 ± 0.0092 | 1.03 ± 0.012 | 1.067 ± 0.0047 | 1.03 ± 0.028 | 1.02 ± 0.025 | 1.06 ± 0.071 | 1.05 ± 0.047 | 1.02 ± 0.017 | 0.946 ± 0.0092
SAOS2 BONE | 1.11 ± 0.018 | 1.07 ± 0.016 | 0.98 ± 0.083 | 0.931 ± 0.04 | 0.636 ± 0.018 | 0.52 ± 0.014 | 0.174 ± 0.0087 | 0.0977 ± 0.0011 | 1.1 ± 0.024 | 1.07 ± 0.0063 | 1.17 ± 0.029 | 1.16 ± 0.047 | 1.12 ± 0.046 | 1.15 ± 0.075 | 1.062 ± 0.0029 | 1.011 ± 0.0035
DU4475 BREAST | 0.752 ± 0.16 | 0.767 ± 0.18 | 0.667 ± 0.25 | 0.639 ± 0.24 | 0.412 ± 0.074 | 0.301 ± 0.057 | 0.0443 ± 0.021 | 0.0323 ± 0.006 | 1.02 ± 0.26 | 1.12 ± 0.21 | 0.991 ± 0.23 | 0.994 ± 0.17 | 0.935 ± 0.22 | 1.06 ± 0.16 | 0.912 ± 0.2 | 0.994 ± 0.26
CAL120 BREAST | 0.942 ± 0.024 | 0.876 ± 0.034 | 0.9035 ± 0.0069 | 0.867 ± 0.025 | 0.674 ± 0.035 | 0.441 ± 0.019 | 0.113 ± 0.025 | 0.0817 ± 0.0065 | 0.968 ± 0.014 | 0.984 ± 0.028 | 1.01 ± 0.023 | 1.01 ± 0.024 | 0.9848 ± 0.0086 | 0.984 ± 0.028 | 0.866 ± 0.024 | 0.753 ± 0.049
MDAMB157 BREAST | 0.899 ± 0.061 | 0.963 ± 0.12 | 0.802 ± 0.051 | 0.812 ± 0.042 | 0.705 ± 0.079 | 0.618 ± 0.088 | 0.432 ± 0.042 | 0.332 ± 0.02 | 0.97 ± 0.13 | 1.03 ± 0.081 | 0.993 ± 0.071 | 1.06 ± 0.11 | 0.934 ± 0.045 | 0.873 ± 0.069 | 0.7437 ± 0.0042 | 0.621 ± 0.045
SG43 HEADNECK | 0.954 ± 0.097 | 1 ± 0.041 | 0.747 ± 0.054 | 0.613 ± 0.06 | 0.506 ± 0.046 | 0.427 ± 0.032 | 0.266 ± 0.02 | 0.168 ± 0.007 | 0.959 ± 0.18 | 1.01 ± 0.3 | 0.772 ± 0.11 | 0.842 ± 0.098 | 0.84 ± 0.14 | 0.93 ± 0.24 | 1.13 ± 0.17 | 1.09 ± 0.11
MDAMB231 BREAST | 0.98 ± 0.011 | 0.985 ± 0.021 | 0.949 ± 0.016 | 0.902 ± 0.018 | 0.645 ± 0.0077 | 0.495 ± 0.013 | 0.182 ± 0.0094 | 0.145 ± 0.0081 | 1.01 ± 0.029 | 1.02 ± 0.025 | 1.03 ± 0.033 | 1.02 ± 0.011 | 0.988 ± 0.012 | 1.02 ± 0.032 | 0.913 ± 0.032 | 0.882 ± 0.025
BT549 BREAST | 1.09 ± 0.18 | 1.02 ± 0.12 | 0.952 ± 0.095 | 0.939 ± 0.14 | 0.569 ± 0.085 | 0.381 ± 0.035 | 0.12 ± 0.013 | 0.0733 ± 0.0021 | 1.1 ± 0.043 | 1.16 ± 0.27 | 1.24 ± 0.031 | 1.11 ± 0.26 | 1.04 ± 0.15 | 1.15 ± 0.056 | 1.11 ± 0.087 | 1.06 ± 0.11
VP229 BREAST | 1.13 ± 0.11 | 1.07 ± 0.062 | 0.948 ± 0.046 | 0.844 ± 0.032 | 0.513 ± 0.078 | 0.383 ± 0.071 | 0.135 ± 0.02 | 0.0757 ± 0.018 | 1.29 ± 0.23 | 1.14 ± 0.17 | 1.21 ± 0.093 | 0.969 ± 0.044 | 1.36 ± 0.17 | 1.34 ± 0.14 | 1.47 ± 0.13 | 1.42 ± 0.081
CASKI CERVIX | 0.91 ± 0.034 | 0.901 ± 0.034 | 0.779 ± 0.05 | 0.922 ± 0.031 | 0.426 ± 0.022 | 0.147 ± 0.009 | 0.0347 ± 0.0047 | 0.338 ± 0.52 | 0.944 ± 0.077 | 0.98 ± 0.096 | 0.988 ± 0.014 | 1.01 ± 0.019 | 1.026 ± 0.0064 | 1.08 ± 0.063 | 0.985 ± 0.073 | 0.956 ± 0.073
BT20 BREAST | 1.13 ± 0.1 | 1.11 ± 0.097 | 1.12 ± 0.019 | 1.09 ± 0.063 | 1 ± 0.048 | 0.72 ± 0.037 | 0.216 ± 0.004 | 0.141 ± 0.021 | 1.15 ± 0.07 | 1.2 ± 0.077 | 1.21 ± 0.093 | 1.01 ± 0.15 | 1.05 ± 0.088 | 1.05 ± 0.16 | 1.24 ± 0.16 | 1.08 ± 0.2
MG63 BONE | 0.984 ± 0.0072 | 0.97 ± 0.04 | 0.9233 ± 0.009 | 0.833 ± 0.035 | 0.539 ± 0.021 | 0.348 ± 0.011 | 0.137 ± 0.0046 | 0.0953 ± 0.0011 | 1.02 ± 0.075 | 1.03 ± 0.06 | 1.08 ± 0.065 | 0.999 ± 0.032 | 0.965 ± 0.061 | 0.865 ± 0.065 | 0.666 ± 0.059 | 0.584 ± 0.029
CAL51 BREAST | 0.988 ± 0.062 | 0.901 ± 0.047 | 0.943 ± 0.064 | 0.91 ± 0.053 | 0.731 ± 0.023 | 0.442 ± 0.035 | 0.123 ± 0.0027 | 0.0447 ± 0.0022 | 0.974 ± 0.023 | 0.975 ± 0.011 | 0.983 ± 0.011 | 0.98 ± 0.031 | 0.973 ± 0.045 | 0.976 ± 0.022 | 0.853 ± 0.051 | 0.755 ± 0.0033
MDAMB468 BREAST | 0.971 ± 0.045 | 0.965 ± 0.12 | 0.989 ± 0.024 | 1 ± 0.078 | 0.857 ± 0.019 | 0.733 ± 0.021 | 0.255 ± 0.019 | 0.0787 ± 0.0084 | 1.04 ± 0.059 | 1.12 ± 0.047 | 1.11 ± 0.092 | 1.09 ± 0.016 | 1.14 ± 0.086 | 1.1 ± 0.1 | 1.1 ± 0.056 | 1.05 ± 0.05
22RV1 PROSTATE | 1.03 ± 0.041 | 0.999 ± 0.072 | 0.876 ± 0.085 | 0.796 ± 0.021 | 0.516 ± 0.065 | 0.312 ± 0.043 | 0.106 ± 0.019 | 0.0857 ± 0.0063 | 1.06 ± 0.03 | 1.05 ± 0.056 | 1.05 ± 0.059 | 1.01 ± 0.075 | 1.05 ± 0.11 | 0.97 ± 0.031 | 1.08 ± 0.032 | 1.06 ± 0.12
JURKAT HAEMATOPOIETIC AND LYMPHOID TISSUE | 1.07 ± 0.026 | 1.09 ± 0.024 | 1.04 ± 0.021 | 1 ± 0.022 | 0.741 ± 0.017 | 0.57 ± 0.013 | 0.213 ± 0.011 | 0.135 ± 0.0042 | 1.06 ± 0.011 | 1.08 ± 0.024 | 1.03 ± 0.035 | 1.02 ± 0.041 | 1 ± 0.039 | 1.02 ± 0.038 | 1.013 ± 0.009 | 0.964 ± 0.032
HUO3N1 BONE | 0.986 ± 0.036 | 0.981 ± 0.039 | 0.924 ± 0.061 | 0.855 ± 0.028 | 0.614 ± 0.013 | 0.494 ± 0.026 | 0.242 ± 0.012 | 0.188 ± 0.003 | 1.05 ± 0.057 | 1.04 ± 0.058 | 1.03 ± 0.013 | 0.961 ± 0.053 | 0.967 ± 0.034 | 0.876 ± 0.018 | 0.764 ± 0.0072 | 0.676 ± 0.051
HCC1395 BREAST | 0.864 ± 0.096 | 0.956 ± 0.025 | 0.998 ± 0.076 | 1.03 ± 0.029 | 0.883 ± 0.21 | 0.846 ± 0.13 | 0.766 ± 0.1 | 0.581 ± 0.15 | 0.937 ± 0.018 | 0.948 ± 0.079 | 0.932 ± 0.05 | 1.03 ± 0.058 | 1 ± 0.11 | 1.03 ± 0.045 | 0.999 ± 0.098 | 0.845 ± 0.075
ZR751 BREAST | 1.13 ± 0.17 | 1.04 ± 0.15 | 0.783 ± 0.13 | 0.708 ± 0.11 | 0.328 ± 0.039 | 0.182 ± 0.038 | 0.091 ± 0.013 | 0.0693 ± 0.012 | 1.04 ± 0.12 | 0.964 ± 0.15 | 0.926 ± 0.035 | 0.84 ± 0.071 | 1.06 ± 0.092 | 1.1 ± 0.088 | 0.915 ± 0.23 | 1.04 ± 0.022
